Counter-ions that a name gives are not always drawn.
Experiments:
Type in all cases: biochemical
IRAK-1 = IRAK-1 (Homo sapiens (Human), UniProt P51617); test: In vitro IRAK-1 kinase assay; settings: purified recombinant IRAK-1, 50 uM ATP, 33P peptide phosphorylation
Method: Purified recombinant IRAK-4 protein was incubated with 250 uM synthetic peptide ([…]) in 30 ul of kinase buffer including (20 mM MOPS pH7.2, 25 mM beta glycerol phosphate, 5 mM EGTA, 1 mM sodium orthovanadate, 1 mM DTT, 50 uM ATP, 20 mM MgCl2, 10 uCi γ-^33P, 0.1% BSA) for the indicated time. For purified recombinant IRAK-1 protein kinase assay, 50 uM ATP was used. A 25 ul aliquot of the reaction mixture was transferred on to p81 phosphocellulose squares (Upstate Biotechnology, Lake Placid, N.Y.). The assay squares were washed three times with 0.75% phosphoric acid and once with acetone. Enzyme activity was measured by determining the bound radioactivity by liquid scintillation counting.

IRAK-4 = IRAK-4 (Homo sapiens (Human), UniProt Q9NWZ3); test: In vitro IRAK-4 kinase assay; settings: purified recombinant IRAK-4, 50 uM ATP, 33P peptide phosphorylation
Outline: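 Recombinant IRAK-4 or IRAK-1 incubated with 250 uM synthetic peptide in MOPS pH7.2 kinase buffer with 50 uM ATP, 20 mM MgCl2 and γ-33P ATP for the indicated time. Phosphorylated peptide captured on phosphocellulose, washed with phosphoric acid, quantified by scintillation counting.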

human full length SYK = human full length SYK (Homo sapiens (Human), UniProt P43405); test: In vitro SYK kinase assay; settings: 20 uM ATP, 33P peptide phosphorylation
Method: Spleen tyrosine kinase (SYK) is a tyrosine kinase that plays an important role in B cell signal transduction. SYK activity is measured by phosphorylation of a peptide substrate (Biotin-[…]) with [gamma-^33P] ATP. The enzyme reaction was conducted at 20 uM ATP with 0.05 uCi [gamma-^33P]ATP (2 uCi for 40 ul assay) and 10 uM peptide substrate at final volume of 40 ul in buffer containing 50 mM Hepes, pH 7.2, 1 mM dithiothreitol, 10 mM MgCl2, 100 uM Na3VO4, 0.1% BSA and 10% DMSO. The enzyme assay was carried out with human full length SYK in the presence or absence of ten compound concentrations. SYK and compound were pre-incubated for 10 minutes. Then, the enzymatic reaction was initiated by addition of ATP and peptide substrate. The reaction mixture was incubated at room temperature for 30 minutes. At the end of incubation, the reaction was terminated by transferring 25 ul of the reaction mixture to 100 ul of 10% streptavidin slurry containing 100 mM EDTA. The reaction product was captured on the affinity resin and sequentially washed on a filtration plate (Millipore, MABVNOB50) with 2M NaCl, 2M M NaCl in 1% phosphoric acid and water to remove free radio nucleotide. Then the incorporation of ^33P into peptide substrate was quantified on a microplate scintillation counter. Compound inhibition potency on SYK was measured by IC50 value generated from ten concentration inhibition curve fitted into the 3-parameter model: % inhibition=Maximum/(1+(IC50/[Inhibitor])^slope). Data were analyzed on Microsoft Excel for parameter estimation.

IRAK-4, sequence (Q9NWZ3 whole entry, species assumed): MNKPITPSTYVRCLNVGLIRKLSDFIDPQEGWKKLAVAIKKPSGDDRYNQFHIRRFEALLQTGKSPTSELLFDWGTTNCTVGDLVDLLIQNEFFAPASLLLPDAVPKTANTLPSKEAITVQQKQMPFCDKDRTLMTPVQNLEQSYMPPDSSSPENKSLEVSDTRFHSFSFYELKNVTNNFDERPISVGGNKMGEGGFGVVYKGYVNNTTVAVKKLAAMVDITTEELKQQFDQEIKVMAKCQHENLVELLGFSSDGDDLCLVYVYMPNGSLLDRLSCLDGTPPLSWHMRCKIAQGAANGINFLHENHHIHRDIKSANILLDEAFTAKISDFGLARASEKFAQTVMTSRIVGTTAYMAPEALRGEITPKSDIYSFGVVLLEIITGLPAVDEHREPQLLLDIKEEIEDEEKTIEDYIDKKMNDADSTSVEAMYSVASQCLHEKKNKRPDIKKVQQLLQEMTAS
IRAK-1, sequence (P51617 whole entry, species assumed): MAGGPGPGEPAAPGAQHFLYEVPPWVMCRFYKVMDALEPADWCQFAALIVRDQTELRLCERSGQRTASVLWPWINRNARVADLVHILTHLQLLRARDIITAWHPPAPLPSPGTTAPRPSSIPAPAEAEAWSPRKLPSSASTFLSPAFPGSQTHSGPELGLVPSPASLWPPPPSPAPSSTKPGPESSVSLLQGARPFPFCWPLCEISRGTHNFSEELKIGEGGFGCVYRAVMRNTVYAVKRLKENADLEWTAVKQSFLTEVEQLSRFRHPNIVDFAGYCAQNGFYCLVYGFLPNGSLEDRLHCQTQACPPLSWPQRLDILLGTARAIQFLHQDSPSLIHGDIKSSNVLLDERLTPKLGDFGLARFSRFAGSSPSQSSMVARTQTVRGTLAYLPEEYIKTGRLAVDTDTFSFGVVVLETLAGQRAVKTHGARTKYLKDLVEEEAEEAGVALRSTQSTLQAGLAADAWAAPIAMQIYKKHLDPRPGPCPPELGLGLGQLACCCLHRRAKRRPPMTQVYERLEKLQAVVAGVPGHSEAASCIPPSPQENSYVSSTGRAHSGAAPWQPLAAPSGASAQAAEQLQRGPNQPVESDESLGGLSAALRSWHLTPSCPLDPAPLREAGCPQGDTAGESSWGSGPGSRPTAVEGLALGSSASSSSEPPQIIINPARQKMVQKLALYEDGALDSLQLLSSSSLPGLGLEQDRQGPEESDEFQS

Molecule	IC50 (IRAK-1)	IC50 (IRAK-4)	IC50 (human full length SYK)
O=C(Nc1cc2cccnc2cc1O[C@H]1CC[C@H](O)CC1)c1csc2cncnc12	168 nM	11 nM	
2-(cis-2-amino-cyclohexylamino)-thieno[3,2-d]pyrimidine-7-carboxylic acid (2,4-dimethoxy-phenyl)-amide [Example 26]	463 nM		
O=C(Nc1cc2cccnc2cc1O[C@@H]1CC[C@@H](O)C1)c1csc2cncnc12 (stereo in doubt) [hydrochloride]	246 nM	15 nM	
NCC1CCN(c2cc3ncccc3cc2NC(=O)c2csc3cncnc23)CC1 [Example 14, hydrochloride]	850 nM	12 nM	
O=C(Nc1cc(Cl)ccc1N1CCCCC1)c1cnn2cc(O)cnc12 [Example 20, 6-Hydroxy-pyrazolo[1,5-a]pyrimidine-3-carboxylic acid (5-chloro-2-piperidin-1-yl-phenyl)-amide]	644 nM	24 nM	
O=C(Nc1cc2cccnc2cc1OC1CCC(O)CC1)c1cnn2cccnc12 (centres unmarked) [Example 23]		29 nM	103 nM
COc1cc2ncccc2cc1NC(=O)c1csc2cnc(N(C)CCO)nc12 [Example 24]	300 nM	29 nM	
COc1cc2ncccc2cc1NC(=O)c1csc2cc(CO)cnc12 [Example 30, 6-Hydroxymethyl-thieno[3,{tildeover (2)}beta] pyridine-3-carboxylic acid (7-methoxy-quinolin-6-yl)-amide]		35 nM	746 nM
O=C1Cc2cc(N3CCC(CO)CC3)c(NC(=O)c3cnn4cccnc34)cc2N1 [Example 34, Pyrazolo[1,5-alpha]pyrimidine-3-carboxylic acid [5-(4-hydroxymethyl-piperidin-1-yl)-2-oxo-2,3-dihydro-1H-indol-6-yl]-amide]		49 nM	478 nM
CC(C)(CCO)Oc1cc2ncccc2cc1NC(=O)c1csc2cncnc12 [Example 35, Thieno[3,2-d]pyrimidine-7-carboxylic acid [7-(3-hydroxy-1,1-dimethyl-propoxy)-quinolin-6-yl]-amide hydrochloride]	364 nM	49 nM	
CN(C)CC1CCN(c2ccc(Cl)cc2NC(=O)c2cnn3cc(O)cnc23)CC1 [Example 37, 6-Hydroxy-pyrazolo[1,5-alpha]pyrimidine-3-carboxylic acid [5-chloro-2-(4-dimethyl-aminomethyl-piperidin-1-yl)-phenyl]-amide]	307 nM	53 nM	
COc1cc2ncccc2cc1NC(=O)c1csc2cnc(N[C@H](C)CO)nc12 [Example 39, 2-(2-Hydroxy-1-methyl-ethylamino)-thieno[3,2-d]pyrimidine-7-carboxylic acid (7-methoxy-quinolin-6-yl)-amide]		63 nM	492 nM
NC(=O)C1CCN(c2ccc(Cl)cc2NC(=O)c2cnn3cccnc23)CC1 [Example 40, Pyrazolo[1,5-alpha]pyrimidine-3-carboxylic acid [2-(4-carbamoyl-piperidin-1-yl)-5-chloro-phenyl]-amide]		69 nM	500 nM
CC(O)C1CCN(c2ccc(Cl)cc2NC(=O)c2cnn3cccnc23)C1 (stereo not drawn) [Example 44, Pyrazolo[1,{tildeover (5)}-alpha] pyrimidine-3-carboxylic acid {5-chloro-2-[3-(1-hydroxy-ethyl)-pyrrolidin-1-yl]-phenyl}-amide]	897 nM	76 nM	
COc1cc2ncccc2cc1NC(=O)c1csc2cnc(NCCO)nc12 [Example 45, 2-(2-Hydroxy-ethylamino)-thieno[3,2-d]pyrimidine-7-carboxylic acid (7-methoxy-quinolin-6-yl)-amide]		76 nM	216 nM
COc1cc2ncccc2cc1NC(=O)c1csc2cnc(NCC(O)CO)nc12 (centres unmarked) [Example 47, 2-(2,3-Dihydroxy-propylamino)-thieno[3,2-d]pyrimidine-7-carboxylic acid (7-methoxy-quinolin-6-yl)-amide]	608 nM	82 nM	
O=C(Nc1cc(Cl)ccc1N1CCC(CO)CC1)c1csc2cncnc12 [Example 49, Thieno[3,2-d]pyrimidine-7-carboxylic acid [5-chloro-2-(4-hydroxymethyl-piperidin-1-yl)-phenyl]-amide]	700 nM	100 nM	

Molecule	IC50 (IRAK-1)	IC50 (IRAK-4)	IC50 (human full length SYK)
O=C(Nc1cc2cccnc2cc1O[C@@H]1CC[C@H](O)C1)c1csc2cncnc12 [Example 54, hydrochloride]		122 nM	500 nM
O=C(Nc1cc(Cl)ccc1O[C@H]1CC[C@@H](O)CC1)c1csc2cncnc12 [Example 62, Thieno[3,2-d]pyrimidine-7-carboxylic acid [5-chloro-2-(4-hydroxy-cyclohexyloxy)-phenyl]-amide]	126 nM	149 nM	
NCC1CCN(c2ccc(Cl)cc2NC(=O)c2csc3cncnc23)CC1 [Example 64, Thieno[3,2-d]pyrimidine-7-carboxylic acid [2-(4-aminomethyl-piperidin-1-yl)-5-chloro-phenyl]-amide]	800 nM	167 nM	
O=C(Nc1cc(Cl)ccc1O[C@H]1CC[C@H](O)CC1)c1csc2cncnc12 [Example 81, Thieno[3,2-d]pyrimidine-7-carboxylic acid [5-chloro-2-(4-hydroxy-cyclohexyloxy)-phenyl]-amide]	600 nM	338 nM	
COc1c(C)cc(C)cc1NC(=O)c1cnn2cccnc12 [Example 168, Pyrazolo[1,5-alpha]pyrimidine-3-carboxylic acid (2-methoxy-3,5-dimethyl-phenyl)-amide]		6520 nM	
COc1ccccc1NC(=O)c1csc2cncnc12 [Example 169, Thieno[3,2-d]pyrimidine-7-carboxylic acid (2-methoxy-phenyl)-amide]		6560 nM	
Cc1ccn2ncc(C(=O)Nc3cc(Cl)ccc3OC3CCC(O)CC3)c2n1 (stereo not drawn) [Example 170, 5-Methyl-pyrazolo[1,5-alpha]pyrimidine-3-carboxylic acid [5-chloro-2-(4-hydroxy-cyclohexyloxy)-phenyl]-amide]		6560 nM	
COc1ccccc1NC(=O)c1cnn2cccnc12 [Example 171, Pyrazolo[1,5-alpha]pyrimidine-3-carboxylic acid (2-methoxy-phenyl)-amide]		7340 nM	
COc1cc(C(=O)N(C)C)ccc1NC(=O)c1cnn2cccnc12 [Example 172, Pyrazolo[1,5-alpha]pyrimidine-3-carboxylic acid (4-dimethylcarbamoyl-2-methoxy-phenyl)-amide]		7650 nM	
COc1ccc(NC(C)=O)cc1NC(=O)c1cnn2cccnc12 [Example 173, Pyrazolo[1,5-alpha]pyrimidine-3-carboxylic acid (5-acetylamino-2-methoxy-phenyl)-amide]		7700 nM	
COc1cc(C(=O)Nc2ccccc2)c(Cl)cc1NC(=O)c1cnn2cccnc12 [Example 174, Pyrazolo[1,5-alpha]pyrimidine-3-carboxylic acid (5-chloro-2-methoxy-4-phenylcarbamoyl-phenyl)-amide]		7920 nM	
COc1ccc(Cl)cc1NC(=O)c1csc2cnc(NCCNC(C)=O)nc12 [Example 175, 2-(2-Acetylamino-ethylamino)-thieno[3,2-d]pyrimidine-7-carboxylic acid-(5-chloro-2-methoxy-phenyl)-amide]		8090 nM	
COc1ccc(CCCO)cc1NC(=O)c1cnn2cccnc12 [Example 176, Pyrazolo[1,5-alpha]pyrimidine-3-carboxylic acid [5-(3-hydroxy-propyl)-2-methoxy-phenyl]-amide]		8360 nM	
COc1cc(CO)ccc1NC(=O)c1cnn2cccnc12 [Example 177, Pyrazolo[1,5-alpha]pyrimidine-3-carboxylic acid (4-hydroxymethyl-2-methoxy-phenyl)-amide]		8670 nM	
O=C(Nc1cc(Cl)ccc1OC1CCC(O)CC1)c1cnn2cc(CCCO)cnc12 (stereo not drawn) [Example 178, 6-(3-Hydroxy-propyl)-pyrazolo[1,5-alpha]pyrimidine-3-carboxylic acid [5-chloro-2-(4-hydroxy-cyclohexyloxy)-phenyl]-amide]		9420 nM	
O=C(Nc1cc(Cl)ccc1OCCO)c1cnn2cccnc12 [Example 179, Pyrazolo[1,5-alpha]pyrimidine-3-carboxylic acid [5-chloro-2-(2-hydroxy-ethoxy)-phenyl]-amide]		5000 nM	
